Where a name gives a salt, the structure may show the parent alone.
Test system: HIV
Assay: MT4 assay: antiviral HIV activity in MT-4 cells
Format: cell-based
Conditions: HTLV-1 transformed cell line MT-4; read-out 96 hours later with cell titer glo; 10 point dose response; trifluoroacetic acid salt; read-out: HIV MT4 Assay IC50
Procedure: Antiviral HIV activity and cytotoxicity values for compounds of the invention from Table 1 were measured in parallel in the HTLV-1 transformed cell line MT-4 based on the method previously described (Hazen et al., 2007, In vitro antiviral activity of the novel, tyrosyl-based human immunodeficiency virus (HIV) type 1 protease inhibitor brecanavir (GW640385) in combination with other antiretrovirals and against a panel of protease inhibitor-resistant HIV (Hazen et al., “In vitro antiviral activity of the novel, tyrosyl-based human immunodeficiency virus (HIV) type 1 protease inhibitor brecanavir (GW640385) in combination with other antiretrovirals and against a panel of protease inhibitor-resistant HIV”, Antimicrob. Agents Chemother. 2007, 51: 3147-3154; and Pauwels et al., “Sensitive and rapid assay on MT-4 cells for the detection of antiviral compounds against the AIDS virus”, J. of Virological Methods 1987, 16: 171-185).
Luciferase activity was measured 96 hours later by adding a cell titer glo (Promega, Madison, Wis.). Percent inhibition of cell protection data was plotted relative to no compound control. Under the same condition, cytotoxicity of the compounds was determined using cell titer Glo™ (Promega, Madison, Wis.). IC50s were determined from a 10 point dose response curve using 3-4-fold serial dilution for each compound, which spans a concentration range>1000 fold.
These values are plotted against the molar compound concentrations using the standard four parameter logistic equation: y=((Vmax*x^n)/(K^n+x^n))+Y2
Y2=minimum y n=slope factor
Vmax=maximum y x=compound concentration [M]

**Q.** With `Cc1nc2c(ccn2Cc2ccc(F)c(F)c2)c(-c2ccc3c(c2C)NCCO3)c1[C@H](OC(C)(C)C)C(=O)O` (atropisomer, axis not shown; (P)) [Example 100, (2S)(P)-2-(tert-butoxy)-2-(1-(3,4-difluorobenzyl)-6-methyl-4-(5-methyl-3,4-dihydro-2H-benzo[b][1,4]oxazin-6-yl)-1H-pyrrolo[2,3-b]pyridin-5-yl)acetic acid, trifluoroacetic acid salt] as the compound, how does the IC50 read?
**A.** The IC50 was 0.1 µM.

Same assay, conditions: Human immunodeficiency virus 1, MT4, 96 h, read-out: HIV MT4 Assay IC50 (μM), HTLV-1 transformed cell line MT-4; read-out 96 hours later with cell titer glo; 10 point dose response

**Q.** Which IC50 does the source give for `Cc1nc2c(ccn2Cc2ccc(F)c(F)c2)c(-c2ccc3c(c2C)CCCO3)c1[C@H](OC(C)(C)C)C(=O)O` (atropisomer, axis not shown; (M)) [Example 87, (2S)(M)-2-(tert-Butoxy)-2-(1-(3,4-difluorobenzyl)-6-methyl-4-(5-methylchroman-6-yl)-1H-pyrrolo[2,3-b]pyridin-5-yl)acetic acid] here?
**A.** Its IC50 is 0.005 µM.

**Q.** With `Cc1nc2c(ccn2Cc2ccc(F)c(F)c2)c(-c2cc(Cl)c3c(c2C)CCCO3)c1[C@H](OC(C)(C)C)C(=O)O` (atropisomer, axis not shown; (M)) [Example 95, (2S)(M)-2-(tert-butoxy)-2-(4-(8-chloro-5-methylchroman-6-yl)-1-(3,4-difluorobenzyl)-6-methyl-1H-pyrrolo[2,3-b]pyridin-5-yl)acetic acid] as the compound, how does the IC50 read?
**A.** Its IC50 is 0.04 µM.

**Q.** Which IC50 does the source give for `Cc1nc2c(ccn2Cc2ccc(F)c(F)c2)c(-c2cc(F)c3c(c2C)CCCO3)c1[C@H](OC(C)(C)C)C(=O)O` (atropisomer, axis not shown; (M)) [Example 96, (2S)(M)-2-(tert-butoxy)-2-(1-(3,4-difluorobenzyl)-4-(8-fluoro-5-methylchroman-6-yl)-6-methyl-1H-pyrrolo[2,3-b]pyridin-5-yl)acetic acid] here?
**A.** Its IC50 is 0.006 µM.

**Q.** How did the IC50 turn out when `Cc1nc2c(ccn2Cc2ccc(F)c(F)c2)c(-c2ccc3c(c2C)NCCO3)c1[C@H](OC(C)(C)C)C(=O)O` (atropisomer, axis not shown; (M)) [Example 97, (2S)(M)-2-(tert-butoxy)-2-(1-(3,4-difluorobenzyl)-6-methyl-4-(5-methyl-3,4-dihydro-2H-benzo[b][1,4]oxazin-6-yl)-1H-pyrrolo[2,3-b]pyridin-5-yl)acetic acid, trifluoroacetic acid salt] was run?
**A.** The IC50 was 0.012 µM.

**Q.** For `Cc1nc2c(ccn2Cc2cccc(F)c2F)c(-c2cc(Cl)c3c(c2C)CCCO3)c1[C@H](OC(C)(C)C)C(=O)O` (atropisomer, axis not shown; (M)) [Example 98, (2S(M))-2-(tert-butoxy)-2-(4-(8-chloro-5-methylchroman-6-yl)-1-(2,3-difluorobenzyl)-6-methyl-1H-pyrrolo[2,3-b]pyridin-5-yl)acetic acid], which IC50 is on record?
**A.** Its IC50 is 0.181 µM.

**Q.** With `Cc1nc2c(ccn2Cc2cccc(F)c2F)c(-c2ccc3c(c2C)CCCO3)c1[C@H](OC(C)(C)C)C(=O)O` (atropisomer, axis not shown; (M)) [Example 99, (2S)(M)-2-(tert-butoxy)-2-(1-(2,3-difluorobenzyl)-6-methyl-4-(5-methylchroman-6-yl)-1H-pyrrolo[2,3-b]pyridin-5-yl)acetic acid] as the compound, how does the IC50 read?
**A.** Its IC50 is 0.008 µM.

**Q.** For `Cc1ccc(-c2c([C@H](OC(C)(C)C)C(=O)O)c(C)nc3c2ccn3Cc2ccc(F)c(F)c2)c(C)c1` (atropisomer, axis not shown; (M)) [Example 101, (2S)(M)-2-(tert-butoxy)-2-(1-(3,4-difluorobenzyl)-4-(2,4-dimethylphenyl)-6-methyl-1H-pyrrolo[2,3-b]pyridin-5-yl)acetic acid], which IC50 is on record?
**A.** The IC50 was 0.09 µM.

**Q.** With `Cc1nc2c(ccn2Cc2cccc(F)c2F)c(-c2ccc3c(c2C)NCCO3)c1[C@H](OC(C)(C)C)C(=O)O` (atropisomer, axis not shown; (M)) [Example 104, (S)-2-(tert-Butoxy)-2-((M)-1-(2,3-difluorobenzyl)-6-methyl-4-(5-methyl-3,4-dihydro-2H-benzo[b][1,4]oxazin-6-yl)-1H-pyrrolo[2,3-b]pyridin-5-yl)acetic acid] as the compound, how does the IC50 read?
**A.** Its IC50 is 0.013 µM.

**Q.** `Cc1nc2c(c(-c3ccc4c(c3C)CCCO4)c1[C@H](OC(C)(C)C)C(=O)O)CCN2` (atropisomer, axis not shown; (M)) [Example 108, (2S)(M)-2-(tert-Butoxy)-2-(6-methyl-4-(5-methylchroman-6-yl)-2,3-dihydro-1H-pyrrolo[2,3-b]pyridin-5-yl)acetic acid] was tested. Which IC50 did it give?
**A.** Its IC50 is 0.44 µM.

**Q.** With `Cc1nc2c(ccn2Cc2ccc(F)c(F)c2)c(-c2cc3c(cc2F)OCCC3)c1[C@H](OC(C)(C)C)C(=O)O` (atropisomer, axis not shown; (M)) [Example 109, (2S)(M)-2-(tert-butoxy)-2-(1-(3,4-difluorobenzyl)-4-(7-fluorochroman-6-yl)-6-methyl-1H-pyrrolo[2,3-b]pyridin-5-yl)acetic acid] as the compound, how does the IC50 read?
**A.** Its IC50 is 0.015 µM.

**Q.** `COc1ccc(-c2c([C@H](OC(C)(C)C)C(=O)O)c(C)nc3c2ccn3Cc2ccc(F)c(F)c2)c(C)c1` (atropisomer, axis not shown; (M)) [Example 111, (2S)(M)-2-(tert-Butoxy)-2-(1-(3,4-difluorobenzyl)-4-(4-methoxy-2-methylphenyl)-6-methyl-1H-pyrrolo[2,3-b]pyridin-5-yl)acetic acid] was tested. Which IC50 did it give?
**A.** The IC50 was 0.037 µM.

**Q.** With `Cc1nc2c(ccn2Cc2ccc(F)c(F)c2)c(-c2ccc3c(c2Cl)NCCO3)c1[C@H](OC(C)(C)C)C(=O)O` (atropisomer, axis not shown; (M)) [Example 113, (2S)(2M)-2-(tert-Butoxy)-2-(4-(5-chloro-3,4-dihydro-2H-benzo[b][1,4]oxazin-6-yl)-1-(3,4-difluorobenzyl)-6-methyl-M-pyrrolo[2,3-b]pyridin-5-yl)acetic acid, Trifluoroacetic acid salt] as the compound, how does the IC50 read?
**A.** The IC50 was 0.009 µM.

**Q.** With `Cc1nc2c(ccn2Cc2ccc(F)c(F)c2)c(-c2ccc3c(c2Cl)N(C)CCO3)c1[C@H](OC(C)(C)C)C(=O)O` (atropisomer, axis not shown; (M)) [Example 116, (2S)(M)-2-(tert-Butoxy)-2-(4-(5-chloro-4-methyl-3,4-dihydro-2H-benzo[b][1,4]oxazin-6-yl)-1-(3,4-difluorobenzyl)-6-methyl-1H-pyrrolo[2,3-b]pyridin-5-yl)acetic acid, Trifluoroacetic acid salt] as the compound, how does the IC50 read?
**A.** Its IC50 is 0.022 µM.

**Q.** Which IC50 does the source give for `Cc1nc2c(c(-c3ccc4c(c3C)NCCO4)c1[C@H](OC(C)(C)C)C(=O)O)CCN2Cc1cccc(F)c1F` (atropisomer, axis not shown; (M)) [Example 118, (2S)(M)-2-(tert-butoxy)-2-(1-(2,3-difluorobenzyl)-6-methyl-4-(5-methyl-3,4-dihydro-2H-benzo[b][1,4]oxazin-6-yl)-2,3-dihydro-1H-pyrrolo[2,3-b]pyridin-5-yl)acetic acid, trifluoroacetic acid salt] here?
**A.** The IC50 was 0.14 µM.

**Q.** `Cc1nc2c(c(-c3ccc4c(c3C)CCCO4)c1[C@H](OC(C)(C)C)C(=O)O)CCN2Cc1cccc(F)c1F` (atropisomer, axis not shown; (M)) [Example 119] was tested. Which IC50 did it give?
**A.** The IC50 was 0.009 µM.

**Q.** `Cc1cc(F)ccc1Cn1ccc2c(-c3ccc4c(c3C)NCCO4)c([C@H](OC(C)(C)C)C(=O)O)c(C)nc21` (atropisomer, axis not shown; (M)) [Example 122, (2S)(M)-2-(tert-butoxy)-2-(1-(4-fluoro-2-methylbenzyl)-6-methyl-4-(5-methyl-3,4-dihydro-2H-benzo[b][1,4]oxazin-6-yl)-1H-pyrrolo[2,3-b]pyridin-5-yl)acetic acid] was tested. Which IC50 did it give?
**A.** Its IC50 is 0.014 µM.

**Q.** With `Cc1nc2c(ccn2Cc2ccc(F)c(F)c2)c(-c2ccc3c4c(ccnc24)CCO3)c1[C@H](OC(C)(C)C)C(=O)O` (atropisomer, axis not shown; (M)) [Example 124, (S)-2-(tert-butoxy)-2-(1-(3,4-difluorobenzyl)-4-((M)-2,3-dihydropyrano[4,3,2-de]quinolin-7-yl)-6-methyl-1H-pyrrolo[2,3-b]pyridin-5-yl)acetic acid] as the compound, how does the IC50 read?
**A.** Its IC50 is 0.035 µM.

**Q.** Which IC50 does the source give for `Cc1nc2c(ccn2C)c(-c2cc(F)c3c(c2C)CCCO3)c1[C@H](OC(C)(C)C)C(=O)O` (atropisomer, axis not shown; (M)) [Example 131, (2S)(M)-2-(tert-butoxy)-2-(4-(8-fluoro-5-methylchroman-6-yl)-1,6-dimethyl-1H-pyrrolo[2,3-b]pyridin-5-yl)acetic acid, Trifluoroacetic acid salt] here?
**A.** The IC50 was 0.055 µM.

**Q.** `Cc1nc2c(ccn2Cc2cccc(F)c2F)c(-c2cc(F)c3c(c2C)NCCO3)c1[C@H](OC(C)(C)C)C(=O)O` (atropisomer, axis not shown; (M)) [Example 132] was tested. Which IC50 did it give?
**A.** Its IC50 is 0.021 µM.

Same assay, conditions: read-out: HIV MT4 Assay IC50; HTLV-1 transformed cell line MT-4; read-out 96 hours later with cell titer glo; 10 point dose response; Trifluoroacetic acid salt

**Q.** For `Cc1nc2c(c3c(n2C)CCCC3)c(-c2ccc3c(c2C)NCCO3)c1[C@H](OC(C)(C)C)C(=O)O` (atropisomer, axis not shown; (M)) [Example 130, (2S)(M)-2-(tert-butoxy)-2-(2,9-dimethyl-4-(5-methyl-3,4-dihydro-2H-benzo[b][1,4]oxazin-6-yl)-6,7,8,9-tetrahydro-5H-pyrido[2,3-b]indol-3-yl)acetic acid, Trifluoroacetic acid salt], which IC50 is on record?
**A.** Its IC50 is 0.01 µM.
